Test results reported in US6248694A, “Plant growth regulator compositions” (BASF Aktiengesellschaft, priority 1999, dated 2001).

What was measured:
[1] = pH in water 1 wt. % concentration; format: physicochemical; settings: 1 wt. % in water
Source text: 5) pH in water 1 wt. % concentration 6.78

[2] = Hygroscopicity (relative water uptake at 50 and 60% relative humidity in air); format: physicochemical
Description: 4) Hygroscopicity of compound 1.1 in comparison to mepiquat chloride:
Both compounds were dried to a constant dry weight in vacuum at 40° C. 48 hours. Afterwards approx. 1 g samples (two series of 3 samples each and average values) were stored under 50 and 60% relative humidity in air for 2 and/or 4 weeks. The following results in relative water uptake (wt. % w/w) were found: […]

[3] = Hygroscopic nature, observation in words; format: physicochemical; settings: solid dried at 50° C. under reduced pressure
[4] = Corrosion trial, test series 2 (DIN No. 52168, modified steel plates, 14 days)
Description: (§1) Comparison of (A) mepiquat chloride, with (B) a mixture of mepiquat chloride with disodium octaborate tetrahydrate (Solubor®), and (C) mepiquat pentaborate (compound 1.9) of example 13.
(§2) The tests of this example were conducted according to the method of DIN (Deutsche Industrie Norm) No. 52168, part 1 of November 1981, but using modified steel plates.
(§3) The corrosion tests were conducted on the three different formulations prepared as set forth below. Each formulation was tested with the different steel types set forth below.
(§4) The first formulation, referred to as "mepiquat chloride" in the tables below, was an 8.33% mepiquat chloride aqueous solution (by weight) prepared by diluting a 600 g/l mepiquat chloride preconcentrate. The second formulation, referred to as "mepiquat chloride plus borate salt" in the tables below, was prepared by adding 15 wt. % disodium octaborate tetrahydrate to the same 8.33% aqueous solution of mepiquat chloride as was used in the first formulation.
(§5) The third formulation, referred to as "mepiquat pentaborate"--in the tables below, was prepared from compound 1.9, example 13 by diluting with water to form a 12% mepiquat pentaborate (wt. %) aqueous solution.
(§6) All three abovementioned formulations contained equal amounts of the mepiquat cation.
(§7) One-half liter quantities of each formulation were placed in polyethylene plastic containers (10 cm×10 cm×12 cm (height)). Into each of the containers, two series of steel plate types--12×5 cm^2 (0.2 cm thickness) were inserted.
(§8) In modification of the mentioned DIN, the steel plates were prepared with an additional oxyacetylene torched area, approximately 5 to 7 mm large, horizontally in the middle of the steel plates.
(§9) The torched areas were placed below the solution's surface. (The aim of this modification of the test was to simulate a more serious corrosion and endangering situation.)
(§10) The position of the plates were such that approximately 1/3 of the plates were in air contact. After 14 days the steel plates were examined, washed and cleaned, dried and weighed according to the DIN method above.

[5] = Corrosion trial, test series 1 (DIN No. 52168, modified steel plates, 14 days)
Description: as §1, §2, §3, §4, §5, §6, §7, §8, §9, §10

[6] = 50% relative humidity in air, 2 weeks
[7] = 60% relative humidity in air, 2 weeks
[8] = 4 weeks at 50% relative humidity in air
[9] = 4 weeks at 60% relative humidity in air

Compound | pH in water 1 wt. % concentration [1] | Hygroscopicity: water uptake [2, 8] [wt. %] | Hygroscopicity: water uptake [2, 9] [wt. %] | further results
C[N+]1(C)CCCCC1.O.O.O.O.O.O.OB(O)O.OB(O)O.OB(O)O.OB(O)O.OB(O)O.OB(O)O.OB(O)O.OB(O)O.OB(O)O.[Na+].[O-]B([O-])O [Compound 1.1, N,N-Dimethylpiperidinium sodium decaborate hexahydrate] | 6.78 |  |  | Relative water uptake [2, 6]: 4.1 wt. % w/w; Relative water uptake [2, 7]: 7.8 wt. % w/w
C[N+]1(C)CCCCC1 [N,N-dimethylpiperidiniumbicarbonate] |  |  |  | Hygroscopic nature of isolated product [3]: extremely hygroscopic
C[N+]1(C)CCCCC1.[Cl-] [mepiquat chloride, N,N-dimethylpiperidinium chloride, reference compound] |  |  |  | pH values, end ([4]; ST 13, end): 8.34; pH values, initial ([4]; ST 13, initial): 7.67; appearance of the resulting formulations ([4]; ST 13, test series 2): yellow to orange solution, cloudy, sedimentations; Relative water uptake [2, 6]: 52 wt. % w/w; Relative water uptake ([2]; 50% relative humidity in air, 4 weeks): 58 wt. % w/w; Relative water uptake [2, 7]: 71 wt. % w/w; Relative water uptake ([2]; 60% relative humidity in air, 4 weeks): 78 wt. % w/w; pH values, end ([5]; ST 37, end): 7.96; pH values, initial ([5]; ST 37, initial): 7.67; appearance of the resulting formulations ([5]; ST 37, test series 1): yellow to orange solution, cloudy, sedimentations
[Dimethylpiperidinium]2^2+ [B12 Na4 O21 ]^2-×20 H2 O [Compound 1.3] |  | 13.6 | 28.8 | 
[Dimethylpiperidinium]2^2+ [B18 Na2 O29 ]^2-×8 H2 O [Compound 1.2] | 7.4 | 5.2 | 7.0 | 
[Dimethylpiperidinium]^+ [B6.4 Na0.3 O10.3 ]^-×4 H2 O [Compound 1.7] |  | 1.9 | 4.1 | 
[Dimethylpiperidinium]^+ [B8 (NH4)0.3 O12.7 ]^-×4 H2 O [Compound 1.5] | 6.8 | 0.4 | 0.6 | 
[Dimethylpiperidinium]^+ [B9 Na0.9 O14.5 ]^-×6H2 O [Compound 1.6] | 7.1 | 2.7 | 9.0 | 
